pIC50: −log10 of the molar value.
Assays:
[1] = biological target: adenosine A2B receptor (Homo sapiens (Human), UniProt P29275); assay: Adenosine receptor activity assay (Table 1), A2B activity; type: biochemical; settings: for Ratio: A2A activity to A2B activity (A2A/A2B); for pIC50: read-out: Ave A2B cAMP IC50
[2] = biological target: adenosine A1 receptor (Homo sapiens (Human), UniProt P30542); assay: Adenosine receptor activity assay (Table 1), A1 cAMP; type: cell-based
[3] = biological target: adenosine A3 receptor (Homo sapiens (Human), UniProt P0DMS8); assay: Adenosine receptor activity assay (Table 1), A3 cAMP; type: cell-based
[4] = biological target: adenosine A2A receptor (Homo sapiens (Human), UniProt P29274); assay: Adenosine receptor activity assay (Table 1), A2A activity; type: biochemical; settings: read-out: Ave A2A cAMP IC50
adenosine A2A receptor, sequence (P29274 whole entry): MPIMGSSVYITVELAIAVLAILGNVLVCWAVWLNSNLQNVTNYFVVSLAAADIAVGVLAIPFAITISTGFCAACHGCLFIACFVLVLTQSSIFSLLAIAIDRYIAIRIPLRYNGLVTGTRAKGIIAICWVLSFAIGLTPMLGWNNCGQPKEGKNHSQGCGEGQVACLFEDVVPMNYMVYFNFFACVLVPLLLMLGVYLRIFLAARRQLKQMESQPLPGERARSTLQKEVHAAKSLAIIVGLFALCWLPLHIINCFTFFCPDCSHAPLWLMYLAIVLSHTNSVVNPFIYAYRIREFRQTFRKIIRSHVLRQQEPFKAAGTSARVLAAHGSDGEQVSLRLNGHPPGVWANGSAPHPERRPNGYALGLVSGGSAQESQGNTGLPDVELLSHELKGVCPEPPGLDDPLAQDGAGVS

adenosine A2B receptor, sequence (P29275 whole entry): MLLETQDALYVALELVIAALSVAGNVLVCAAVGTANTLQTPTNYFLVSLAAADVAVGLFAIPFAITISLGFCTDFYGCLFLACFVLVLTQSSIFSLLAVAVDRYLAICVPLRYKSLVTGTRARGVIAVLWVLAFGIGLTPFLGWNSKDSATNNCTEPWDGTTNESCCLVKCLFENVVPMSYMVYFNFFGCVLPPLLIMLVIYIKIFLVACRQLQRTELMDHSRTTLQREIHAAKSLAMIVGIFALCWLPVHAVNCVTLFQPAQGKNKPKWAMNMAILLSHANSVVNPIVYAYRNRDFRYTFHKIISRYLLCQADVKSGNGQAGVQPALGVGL
adenosine A3 receptor, sequence (P0DMS8 whole entry): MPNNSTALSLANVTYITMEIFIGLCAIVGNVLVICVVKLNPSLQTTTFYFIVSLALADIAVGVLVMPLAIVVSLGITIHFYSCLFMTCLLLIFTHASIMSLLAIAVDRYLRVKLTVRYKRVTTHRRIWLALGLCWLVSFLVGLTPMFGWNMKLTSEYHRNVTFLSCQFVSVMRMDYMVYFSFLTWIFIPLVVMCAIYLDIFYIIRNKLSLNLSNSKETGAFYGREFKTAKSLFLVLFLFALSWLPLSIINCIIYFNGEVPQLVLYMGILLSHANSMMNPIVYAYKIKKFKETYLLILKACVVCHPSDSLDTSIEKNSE
adenosine A1 receptor, sequence (P30542 whole entry): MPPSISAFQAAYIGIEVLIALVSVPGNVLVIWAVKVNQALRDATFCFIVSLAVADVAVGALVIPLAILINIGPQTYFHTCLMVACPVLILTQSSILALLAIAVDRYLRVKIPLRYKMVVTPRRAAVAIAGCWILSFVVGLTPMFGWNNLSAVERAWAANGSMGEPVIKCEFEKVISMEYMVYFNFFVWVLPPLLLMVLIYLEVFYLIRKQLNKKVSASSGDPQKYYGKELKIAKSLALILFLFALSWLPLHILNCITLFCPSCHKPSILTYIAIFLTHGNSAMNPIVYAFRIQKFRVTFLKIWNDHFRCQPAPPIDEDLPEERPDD

Compound	Ratio [1]	pIC50 [1]	pIC50 [2]	pIC50 [3]	pIC50 [4]
CO[C@H]1CCN(C(=O)c2nc(N[C@@H](C)c3ccccn3)nc3cc(C)sc23)C1 [Example Z311, ((S)-3-Methoxypyrrolidin-1-yl)(6-methyl-2-(((S)-1-(pyridin-2-yl)ethyl)amino)thieno[3,2-d]pyrimidin-4-yl)methanone]	3.82	7.30 to 8.00	< 6.30	7.00 to 7.30	7.00 to 7.30
C[C@H](Nc1nc(C(=O)N[C@@H]2CCN(C(=O)OC(C)(C)C)C2)c2sccc2n1)c1ccccn1 [Example Z326, tert-Butyl (R)-3-(2-(((S)-1-(pyridin-2-yl)ethyl)amino)thieno[3,2-d]pyrimidine-4-carboxamido)pyrrolidine-1-carboxylate]	0.54	7.00 to 7.30	< 6.30	7.30 to 8.00	7.30 to 8.00
Cc1cc2nc(N[C@@H](C)c3cccnc3)nc(C(=O)NC[C@@H](C)O)c2s1 [Example Z334, N—((R)-2-Hydroxypropyl)-6-methyl-2-(((S′)-1-(pyridin-3-yl)ethyl)amino)thieno[3,2-d]pyrimidine-4-carboxamide]	171.86	> 8.00	< 6.30	7.00 to 7.30	6.30 to 7.00
Cc1cc2nc(N[C@@H](C)c3cccnc3)nc(C(=O)N3CC[C@H](CO)C3)c2s1 [Example Z336, ((S)-3-(Hydroxymethyl)pyrrolidin-1-yl)(6-methyl-2-(((S)-1-(pyridin-3-yl)ethyl)amino)thieno[3,2-d]pyrimidin-4-yl)methanone]	136.91	> 8.00	< 6.30	< 6.30	< 6.30
C[C@H](Nc1nc(C(=O)NCC2CCOCC2)c2sccc2n1)c1cncc(F)c1 [Example Z339, (S)-2-((1-(5-Fluoropyridin-3-yl)ethyl)amino)-N-((tetrahydro-2H-pyran-4-yl)methyl)thieno[3,2-d]pyrimidine-4-carboxamide]	10.57	> 8.00	< 6.30	< 6.30	7.00 to 7.30

More lines, now with the values ahead:

Ratio [1]	pIC50 [1]	pIC50 [2]	pIC50 [3]	pIC50 [4]	Compound
71.73	> 8.00	< 6.30	< 6.30	6.30 to 7.00	Cc1cc2nc(N[C@@H](C)c3cncc(F)c3)nc(C(=O)N3CC[C@@H](CO)C3)c2s1 [Example Z310, (2-(((S)-1-(5-Fluoropyridin-3-yl)ethyl)amino)-6-methylthieno[3,2-d]pyrimidin-4-yl)((R)-3-(hydroxymethyl)pyrrolidin-1-yl)methanone]
143.99	> 8.00	< 6.30	< 6.30	< 6.30	C[C@H](Nc1nc(C(=O)N2CCCC2)c2sc(C(F)(F)F)cc2n1)c1cccnc1 [Example Z327, (S)-(2-((1-(Pyridin-3-yl)ethyl)amino)-6-(trifluoromethyl)thieno[3,2-d]pyrimidin-4-yl)(pyrrolidin-1-yl)methanone]
107.75	> 8.00	< 6.30	7.00 to 7.30	6.30 to 7.00	Cc1cc2nc(N[C@@H](C)c3cccnc3)nc(C(=O)NC[C@H](C)O)c2s1 [Example Z328, N—((S)-2-Hydroxypropyl)-6-methyl-2-(((S)-1-(pyridin-3-yl)ethyl)amino)thieno[3,2-d]pyrimidine-4-carboxamide]
26.05	> 8.00	7.00 to 7.30	7.00 to 7.30	7.30 to 8.00	C[C@H](Nc1nc(C(=O)N[C@H]2CC[C@@H](O)C2)c2sccc2n1)c1cncc(F)c1 [Example Z329, 2-(((S)-1-(5-Fluoropyridin-3-yl)ethyl)amino)-N-((1S,3R)-3-hydroxycyclopentyl)thieno[3,2-d]pyrimidine-4-carboxamide]
61.94	> 8.00	< 6.30	< 6.30	6.30 to 7.00	CC(=O)N[C@H]1CCN(C(=O)c2nc(N[C@@H](C)c3cncc(F)c3)nc3ccsc23)C1 [Example Z331, N—((S)-1-(2-(((S)-1-(5-Fluoropyridin-3-yl)ethyl)amino)thieno[3,2-d]pyrimidine-4-carbonyl)pyrrolidin-3-yl)acetamide]

From US11254686B1 (Corvus Pharmaceuticals, Inc., priority 2017, dated 2022)
